Calls of active or inactive are those of the source. Cut-off read from the data, not from the text of the source: actives have a measured EC50 and inactives only a lower limit.
test system: not listed separately; test: luciferase reporter signal suppression in cells – H4 neuroglioma cells, luminescence, dose response (AID 1990); assay type: functional, cell-based

Question: Which EC50 does the source give for `CC(C)Cc1nc2n[nH]c(N)c2c2c1COC(C)(C)C2` here?
Answer: 38.2 µM (active)

Question: For `O=C(c1nc2nc(-c3ccc(Cl)cc3)cc(C(F)(F)F)n2n1)N1CCOCC1`, which EC50 is on record?
Answer: 14 µM (active)

Question: With `COc1ccc(-c2[nH]ncc2CN2CCC(O)(c3ccc(Cl)cc3)CC2)cc1` as the molecule, how does the EC50 read?
Answer: 18.2 µM (active)

Question: For `COc1cccc(-c2cc(C(F)(F)F)nc(-n3cc(Cl)cn3)n2)c1`, which EC50 is on record?
Answer: > 120 µM (not active)

Question: For `CCn1c(C(=O)NC(C)c2ccc3c(c2)OCCO3)cc2sccc21` (configuration not stated), which EC50 is on record?
Answer: 14.2 µM (active)

Question: Which EC50 does the source give for `COc1ccc(NC(=O)C2CCN(C(=O)Nc3ccc(C)cc3)CC2)cc1OC` here?
Answer: > 120 µM (not active)

Question: With `O=S(=O)(c1ccc2c(c1)OCCO2)N1CCC(c2nc(O)c3nnn(Cc4ccccc4F)c3n2)CC1` as the molecule, how does the EC50 read?
Answer: > 120 µM (not active)

Question: Which EC50 does the source give for `C1=C(c2cccc3ccccc23)N2CCN=C2S1` here?
Answer: > 120 µM (not active)

Question: For `O=C(N/N=C/c1cc([N+](=O)[O-])ccc1Cl)c1cnccn1`, which EC50 is on record?
Answer: > 120 µM (not active)

test system: not listed separately; test: Luminescence Cell-Based Dose Response HTS to Identify Inhibitors of 5'UTR Stem-Loop Driven Prion Protein mRNA Translation in H4 Neuroglioblastoma Cells. [Related pubchem assays: 1827 (Project Summary), 1813 (Primary HTS)]; assay type: functional

Question: With `CC(C)Cc1nc2n[nH]c(N)c2c2c1COC(C)(C)C2` as the molecule, how does the EC50 read?
Answer: > 120 µM (not active)

Question: With `O=C(c1nc2nc(-c3ccc(Cl)cc3)cc(C(F)(F)F)n2n1)N1CCOCC1` as the molecule, how does the EC50 read?
Answer: 54.3 µM (active)

Question: With `COc1cccc(-c2cc(C(F)(F)F)nc(-n3cc(Cl)cn3)n2)c1` as the molecule, how does the EC50 read?
Answer: > 120 µM (not active)

Question: For `CCn1c(C(=O)NC(C)c2ccc3c(c2)OCCO3)cc2sccc21` (configuration not stated), which EC50 is on record?
Answer: 15.8 µM (active)

Question: With `COc1ccc(NC(=O)C2CCN(C(=O)Nc3ccc(C)cc3)CC2)cc1OC` as the molecule, how does the EC50 read?
Answer: > 120 µM (not active)

Question: With `Cc1ccc2c(COC(=O)C3=COCCO3)cc(=O)oc2c1` as the molecule, how does the EC50 read?
Answer: 10.5 µM (active)

Question: For `O=S(=O)(c1ccc2c(c1)OCCO2)N1CCC(c2nc(O)c3nnn(Cc4ccccc4F)c3n2)CC1`, which EC50 is on record?
Answer: > 120 µM (not active)

Question: With `C1=C(c2cccc3ccccc23)N2CCN=C2S1` as the molecule, how does the EC50 read?
Answer: > 120 µM (not active)

Question: Which EC50 does the source give for `O=C(N/N=C/c1cc([N+](=O)[O-])ccc1Cl)c1cnccn1` here?
Answer: 9.8 µM (active)

biological target: T1, Heat shock factor protein 1 (Mus musculus, UniProt P38532); test: decrease of HSF1-responsive luciferase luminescence – cell-based, NIH3T3, dose retest, confirmation (AID 2382); assay type: functional;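 note: NIH3T3 fibroblasts with HSF1-driven luciferase reporter stressed by proteasome inhibitor MG132; luminescence from HSF1-driven luciferase expression after 8 hours of MG132 stress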
T1 sequence (P38532 whole entry): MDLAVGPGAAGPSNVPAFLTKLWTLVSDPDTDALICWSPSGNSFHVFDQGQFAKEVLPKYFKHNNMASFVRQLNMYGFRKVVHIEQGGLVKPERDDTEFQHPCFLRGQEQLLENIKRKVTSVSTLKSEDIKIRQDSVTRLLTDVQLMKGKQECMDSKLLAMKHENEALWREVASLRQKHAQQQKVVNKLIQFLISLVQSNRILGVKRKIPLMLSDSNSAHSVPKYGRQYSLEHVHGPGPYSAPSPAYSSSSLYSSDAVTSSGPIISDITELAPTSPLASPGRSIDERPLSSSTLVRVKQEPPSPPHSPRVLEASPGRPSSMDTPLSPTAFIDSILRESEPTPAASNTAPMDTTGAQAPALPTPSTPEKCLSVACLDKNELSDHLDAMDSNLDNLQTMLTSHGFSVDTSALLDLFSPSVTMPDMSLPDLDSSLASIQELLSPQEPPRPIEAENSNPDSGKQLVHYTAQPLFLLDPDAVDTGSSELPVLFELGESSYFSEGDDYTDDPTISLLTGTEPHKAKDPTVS

Question: With `O=C(OCC(=O)N1CCN(C(=O)c2ccco2)CC1)c1sc2cc(F)ccc2c1Cl` as the molecule, how does the EC50 read?
Answer: > 195 µM (not active)

Question: For `O=C(c1ccc(F)cc1)N1CCCC(N2CCN(Cc3ccc4c(c3)OCO4)CC2)C1` (configuration not stated), which EC50 is on record?
Answer: > 195 µM (not active)

Question: With `COc1cccc(COC(=O)c2ccc3c(c2)NC(=O)C(C)S3)c1OC` (configuration not stated) as the molecule, how does the EC50 read?
Answer: > 195 µM (not active)

Question: Which EC50 does the source give for `CC(C)(C)OC(=O)COc1cc(O)c2c(=O)cc(-c3ccccc3)oc2c1` here?
Answer: > 195 µM (not active)

Question: For `O=C1OC(N2CCN(C/C=C/c3ccccc3)CC2)c2ccccc21` (configuration not stated), which EC50 is on record?
Answer: > 195 µM (not active)

Question: With `N#Cc1nc(-c2ccco2)oc1N1CCN(Cc2ccccc2)CC1` as the molecule, how does the EC50 read?
Answer: > 195 µM (not active)

Question: For `Cn1c(SCC(=O)NCc2ccccc2)nc2ccccc21`, which EC50 is on record?
Answer: > 195 µM (not active)

Question: For `Cc1ccc(NC(=O)NCC(c2cccnc2)N2CCOCC2)cc1` (configuration not stated), which EC50 is on record?
Answer: > 195 µM (not active)

Question: Which EC50 does the source give for `Nc1nc(O)c(Br)c(Oc2ccc(F)cc2)n1` here?
Answer: 35.4 µM (active)

Question: With `COc1ccc(NC(=O)CSc2nc(C)cs2)cc1` as the molecule, how does the EC50 read?
Answer: > 195 µM (not active)

Question: Which EC50 does the source give for `COc1ccc(-c2nc(CNS(=O)(=O)c3ccc(OC)c(OC)c3)cs2)cc1` here?
Answer: > 195 µM (not active)

Question: With `CCC(=O)Nc1ccc(NC(=O)Cc2ccccc2)cn1` as the molecule, how does the EC50 read?
Answer: > 195 µM (not active)

Question: With `O=C(N/N=C/c1cccnc1)c1ccc2c(c1)OCCO2` as the molecule, how does the EC50 read?
Answer: > 195 µM (not active)

Question: With `CCOC(=O)c1ccc(NC(=O)NS(=O)(=O)c2ccc(C)cc2)cc1` as the molecule, how does the EC50 read?
Answer: > 195 µM (not active)

test system: not listed separately; test: alpha-synuclein stem-loop luciferase translation blockers – H4 neuroglioma cells, luminescence, confirmation (AID 1988); assay type: functional, cell-based

Question: For `CC(C)Cc1nc2n[nH]c(N)c2c2c1COC(C)(C)C2`, which EC50 is on record?
Answer: 21.4 µM (active)

Question: Which EC50 does the source give for `O=C(c1nc2nc(-c3ccc(Cl)cc3)cc(C(F)(F)F)n2n1)N1CCOCC1` here?
Answer: 15.9 µM (active)

Question: Which EC50 does the source give for `COc1ccc(-c2[nH]ncc2CN2CCC(O)(c3ccc(Cl)cc3)CC2)cc1` here?
Answer: 9.96 µM (active)

Question: For `COc1cccc(-c2cc(C(F)(F)F)nc(-n3cc(Cl)cn3)n2)c1`, which EC50 is on record?
Answer: > 120 µM (not active)

Question: For `CCn1c(C(=O)NC(C)c2ccc3c(c2)OCCO3)cc2sccc21` (configuration not stated), which EC50 is on record?
Answer: 22.5 µM (active)

Question: Which EC50 does the source give for `COc1ccc(NC(=O)C2CCN(C(=O)Nc3ccc(C)cc3)CC2)cc1OC` here?
Answer: > 120 µM (not active)

Question: Which EC50 does the source give for `Cc1ccc2c(COC(=O)C3=COCCO3)cc(=O)oc2c1` here?
Answer: 8.1 µM (inconclusive)

Question: With `O=S(=O)(c1ccc2c(c1)OCCO2)N1CCC(c2nc(O)c3nnn(Cc4ccccc4F)c3n2)CC1` as the molecule, how does the EC50 read?
Answer: > 120 µM (not active)

Question: For `C1=C(c2cccc3ccccc23)N2CCN=C2S1`, which EC50 is on record?
Answer: > 120 µM (not active)

Question: With `O=C(N/N=C/c1cc([N+](=O)[O-])ccc1Cl)c1cnccn1` as the molecule, how does the EC50 read?
Answer: > 120 µM (not active)

Source: ChEMBL document CHEMBL1201862, “PubChem BioAssay data set” (2004)
